# PubChem BioAssay AID1745844 (Carcinogenic Potency Database (CPDB), 2022)
# Active and inactive are the calls of the source. How the calls were made is not given here.
# System: rodent lifetime carcinogenesis bioassay, tumor incidence TD50
# Assay: chronic cancer bioassays in animals – CPDB, compiled studies (AID 1745844)
smiles,measurement,setting,value
OC[C@H]1O[C@@H]2O[C@H]3[C@H](O)[C@@H](O)[C@@H](O[C@H]4[C@H](O)[C@@H](O)[C@@H](O[C@H]5[C@H](O)[C@@H](O)[C@@H](O[C@H]6[C@H](O)[C@@H](O)[C@@H](O[C@H]7[C@H](O)[C@@H](O)[C@@H](O[C@H]8[C@H](O)[C@@H](O)[C@@H](O[C@H]1[C@H](O)[C@H]2O)O[C@@H]8CO)O[C@@H]7CO)O[C@@H]6CO)O[C@@H]5CO)O[C@@H]4CO)O[C@@H]3CO,carcinogen call,"mouse, strain Charles River CD1, females, in feed, site: lung, lesion: several types, types named in the paper, dosed 104 weeks, study length 104 weeks",negative (inactive)
same,TD50,"mouse, strain Charles River CD1, males, in feed, site: lung, lesion: several types, types named in the paper, dosed 93 weeks, study length 93 weeks",728 mg/kg/day (inactive)
same,carcinogen call,"rat, strain Charles River CD (Sprague-Dawley), females, in feed, site: liver, lesion: one or several types, types not named, dosed 52 weeks, study length 52 weeks",negative (inactive)
same,carcinogen call,"rat, strain Charles River CD (Sprague-Dawley), males, in feed, site: liver, lesion: one or several types, types not named, dosed 52 weeks, study length 52 weeks",negative (inactive)
same,TD50,"rat, strain F344/DuCrj, females, in feed, site: any site (literature study), lesion: several types, types named in the paper, dosed 104 weeks, study length 109 weeks",85900 mg/kg/day (inactive)
same,carcinogen call,"rat, strain F344/DuCrj, females, in feed, site: liver, lesion: hepatocellular adenoma, dosed 104 weeks, study length 109 weeks",negative (inactive)
same,carcinogen call,"rat, strain F344/DuCrj, males, in feed, site: any site (literature study), lesion: several types, types named in the paper, dosed 104 weeks, study length 109 weeks",negative (inactive)
same,carcinogen call,"rat, strain F344/DuCrj, males, in feed, site: liver, lesion: hepatocellular adenoma, dosed 104 weeks, study length 109 weeks",negative (inactive)
same,TD50,"rat, strain Fischer 344, females, in feed, site: uterus, lesion: adenocarcinoma, dosed 129 weeks, study length 129 weeks",22700 mg/kg/day (inactive)
same,TD50,"rat, strain Fischer 344, males, in feed, site: testis, lesion: interstitial-cell tumor, dosed 122 weeks, study length 122 weeks",157 mg/kg/day (inactive)
FC(F)Cl,carcinogen call,"mouse, strain Swiss, females, inhaled, site: any site (literature study), lesion: malignant tumor, dosed 78 weeks, study length 104 weeks",negative (inactive)
same,carcinogen call,"mouse, strain Swiss, females, inhaled, site: any site (literature study), lesion: several types, types named in the paper, dosed 78 weeks, study length 104 weeks",negative (inactive)
same,carcinogen call,"mouse, strain Swiss, females, inhaled, site: lung, lesion: adenoma, dosed 78 weeks, study length 104 weeks",negative (inactive)
same,TD50,"mouse, strain Swiss, males, inhaled, site: any site (literature study), lesion: malignant tumor, dosed 78 weeks, study length 104 weeks",98300 mg/kg/day (inactive)
same,carcinogen call,"mouse, strain Swiss, males, inhaled, site: any site (literature study), lesion: several types, types named in the paper, dosed 78 weeks, study length 104 weeks",negative (inactive)
same,carcinogen call,"mouse, strain Swiss, males, inhaled, site: lung, lesion: adenoma, dosed 78 weeks, study length 104 weeks",negative (inactive)
same,TD50,"rat, strain Sprague-Dawley, females, inhaled, site: any site (literature study), lesion: malignant tumor, dosed 104 weeks, study length 104 weeks",20100 mg/kg/day (inactive)
same,TD50,"rat, strain Sprague-Dawley, females, inhaled, site: any site (literature study), lesion: several types, types named in the paper, dosed 104 weeks, study length 104 weeks",26000 mg/kg/day (inactive)
same,carcinogen call,"rat, strain Sprague-Dawley, females, inhaled, site: liver, lesion: angiosarcoma, dosed 104 weeks, study length 104 weeks",negative (inactive)
same,carcinogen call,"rat, strain Sprague-Dawley, males, inhaled, site: any site (literature study), lesion: malignant tumor, dosed 104 weeks, study length 104 weeks",negative (inactive)
same,TD50,"rat, strain Sprague-Dawley, males, inhaled, site: any site (literature study), lesion: several types, types named in the paper, dosed 104 weeks, study length 104 weeks",6540 mg/kg/day (inactive)
same,carcinogen call,"rat, strain Sprague-Dawley, males, inhaled, site: liver, lesion: angiosarcoma, dosed 104 weeks, study length 104 weeks",negative (inactive)
CN(C)N=O,TD50,"mouse, strain A, males, in drinking water, site: lung, lesion: alveolar-cell adenoma, dosed 72 weeks, study length 72 weeks",0.177 mg/kg/day
same,TD50,"mouse, strain BALB/c, females, in drinking water, site: any site (literature study), lesion: several types, types named in the paper, dosed 85 weeks, study length 85 weeks",0.396 mg/kg/day
same,TD50,"mouse, strain BALB/c, females, in drinking water, site: lung, lesion: adenoma, dosed 85 weeks, study length 85 weeks",0.324 mg/kg/day
same,TD50,"mouse, strain C57BL, females, by gavage, site: any site (literature study), lesion: several types, types named in the paper, dosed 50 weeks, study length 72 weeks",0.0964 mg/kg/day
same,TD50,"mouse, strain C57BL, females, by gavage, site: forebrain, lesion: olfactory neuroepithelioma, dosed 50 weeks, study length 72 weeks",0.153 mg/kg/day
same,TD50,"mouse, strain C57BL, females, by gavage, site: liver, lesion: benign tumor, dosed 50 weeks, study length 72 weeks",0.35 mg/kg/day
same,TD50,"mouse, strain C57BL, females, by gavage, site: liver, lesion: malignant tumor, dosed 50 weeks, study length 72 weeks",0.429 mg/kg/day
same,TD50,"mouse, strain C57BL, males, by gavage, site: any site (literature study), lesion: several types, types named in the paper, dosed 50 weeks, study length 72 weeks",0.06 mg/kg/day
same,TD50,"mouse, strain C57BL, males, by gavage, site: forebrain, lesion: olfactory neuroepithelioma, dosed 50 weeks, study length 72 weeks",0.161 mg/kg/day
same,TD50,"mouse, strain C57BL, males, by gavage, site: liver, lesion: benign tumor, dosed 50 weeks, study length 72 weeks",0.508 mg/kg/day
same,TD50,"mouse, strain C57BL, males, by gavage, site: liver, lesion: malignant tumor, dosed 50 weeks, study length 72 weeks",0.179 mg/kg/day
same,TD50,"mouse, strain C57BL, males, by gavage, site: lung, lesion: adenoma, dosed 50 weeks, study length 72 weeks",21.1 mg/kg/day
same,TD50,"rat, strain Buffalo, males, in feed, site: liver, lesion: hepatocellular carcinoma, dosed 26 weeks, study length 52 weeks",1.76 mg/kg/day
same,TD50,"rat, strain Colworth (Wistar derived), females, in drinking water, site: liver, lesion: hepatocellular carcinoma, dosed 176 weeks, study length 176 weeks",0.237 mg/kg/day
same,TD50,"rat, strain Colworth (Wistar derived), females, in drinking water, site: liver, lesion: hepatocellular tumor, dosed 176 weeks, study length 176 weeks",0.145 mg/kg/day
same,TD50,"rat, strain Colworth (Wistar derived), females, in drinking water, site: liver, lesion: intrahepatic bile duct tumor, benign, dosed 176 weeks, study length 176 weeks",0.0763 mg/kg/day
same,TD50,"rat, strain Colworth (Wistar derived), females, in drinking water, site: liver, lesion: intrahepatic bile duct tumor, dosed 176 weeks, study length 176 weeks",0.0752 mg/kg/day
same,TD50,"rat, strain Colworth (Wistar derived), females, in drinking water, site: liver, lesion: mesenchymal hemangio-sarcoma, -pericytoma, or -endothelioma, malignant, dosed 176 weeks, study length 176 weeks",0.914 mg/kg/day
same,TD50,"rat, strain Colworth (Wistar derived), females, in drinking water, site: liver, lesion: neoplasm of liver cell, bile duct, mesenchyme, Kupffer cell, or unknown, dosed 176 weeks, study length 176 weeks",0.0424 mg/kg/day
same,TD50,"rat, strain Colworth (Wistar derived), males, in drinking water, site: liver, lesion: hepatocellular carcinoma, dosed 176 weeks, study length 176 weeks",0.218 mg/kg/day
same,TD50,"rat, strain Colworth (Wistar derived), males, in drinking water, site: liver, lesion: hepatocellular tumor, dosed 176 weeks, study length 176 weeks",0.157 mg/kg/day
same,TD50,"rat, strain Colworth (Wistar derived), males, in drinking water, site: liver, lesion: intrahepatic bile duct tumor, benign, dosed 176 weeks, study length 176 weeks",0.313 mg/kg/day
same,TD50,"rat, strain Colworth (Wistar derived), males, in drinking water, site: liver, lesion: intrahepatic bile duct tumor, malignant, dosed 176 weeks, study length 176 weeks",23.6 mg/kg/day
same,TD50,"rat, strain Colworth (Wistar derived), males, in drinking water, site: liver, lesion: intrahepatic bile duct tumor, dosed 176 weeks, study length 176 weeks",0.308 mg/kg/day
same,TD50,"rat, strain Colworth (Wistar derived), males, in drinking water, site: liver, lesion: mesenchymal hemangio-sarcoma, -pericytoma, or -endothelioma, malignant, dosed 176 weeks, study length 176 weeks",0.712 mg/kg/day
same,TD50,"rat, strain Colworth (Wistar derived), males, in drinking water, site: liver, lesion: neoplasm of liver cell, bile duct, mesenchyme, Kupffer cell, or unknown, dosed 176 weeks, study length 176 weeks",0.0867 mg/kg/day
same,TD50,"rat, strain Colworth (Wistar derived), males, in drinking water, site: lung, lesion: several types, types named in the paper, dosed 176 weeks, study length 176 weeks",1.64 mg/kg/day
same,TD50,"rat, strain Fischer 344, females, in drinking water, site: liver, lesion: hemangiosarcoma, dosed 30 weeks, study length 110 weeks",0.438 mg/kg/day
same,TD50,"rat, strain Fischer 344, females, in drinking water, site: liver, lesion: hepatocellular carcinoma, dosed 30 weeks, study length 110 weeks",0.135 mg/kg/day
same,TD50,"rat, strain Fischer 344, females, in drinking water, site: liver, lesion: several types, types named in the paper, dosed 30 weeks, study length 110 weeks",0.0587 mg/kg/day
same,TD50,"rat, strain Fischer 344, males, by gavage, site: kidney, lesion: mesenchymal neoplasm, dosed 30 weeks, study length 65 weeks",0.189 mg/kg/day
same,TD50,"rat, strain Fischer 344, males, by gavage, site: liver, lesion: cholangiocellular tumor, benign, dosed 30 weeks, study length 65 weeks",0.822 mg/kg/day
same,TD50,"rat, strain Fischer 344, males, by gavage, site: liver, lesion: hemangiosarcoma, dosed 30 weeks, study length 65 weeks",0.822 mg/kg/day
same,TD50,"rat, strain Fischer 344, males, by gavage, site: liver, lesion: hepatocellular tumor, benign, dosed 30 weeks, study length 65 weeks",0.372 mg/kg/day
same,TD50,"rat, strain Fischer 344, males, by gavage, site: liver, lesion: several types, types named in the paper, dosed 30 weeks, study length 65 weeks",0.189 mg/kg/day
same,TD50,"rat, strain Fischer 344, males, by gavage, site: lung, lesion: alveolar/bronchiolar adenoma, dosed 30 weeks, study length 65 weeks",0.106 mg/kg/day
same,TD50,"rat, strain Fischer 344, males, by gavage, site: lung, lesion: several types, types named in the paper, dosed 30 weeks, study length 65 weeks",0.0765 mg/kg/day
same,TD50,"rat, strain Fischer 344, males, by gavage, site: lung, lesion: squamous-cell carcinoma, dosed 30 weeks, study length 65 weeks",0.372 mg/kg/day
same,TD50,"rat, strain MRC Porton (Wistar derived), females, in feed, site: liver, lesion: one or several types, types not named, dosed 52 weeks, study length 120 weeks",0.443 mg/kg/day
same,TD50,"rat, strain MRC Porton (Wistar derived), females, in feed, site: liver, lesion: one or several types, types not named, dosed 108 weeks, study length 120 weeks",1.4 mg/kg/day
same,TD50,"rat, strain MRC Porton (Wistar derived), males, in feed, site: liver, lesion: one or several types, types not named, dosed 120 weeks, study length 120 weeks",1.18 mg/kg/day
same,TD50,"rat, strain Wistar, females, in feed, site: all sites, lesion: leukemia, dosed 96 weeks, study length 96 weeks",1.46 mg/kg/day
same,TD50,"rat, strain Wistar, females, in feed, site: liver, lesion: hemangioendothelioma, dosed 96 weeks, study length 96 weeks",1.83 mg/kg/day
same,TD50,"rat, strain Wistar, females, in feed, site: liver, lesion: hepatocellular carcinoma, dosed 96 weeks, study length 96 weeks",4.1 mg/kg/day
same,TD50,"rat, strain Wistar, females, in feed, site: liver, lesion: nodular hyperplasia, dosed 96 weeks, study length 96 weeks",0.113 mg/kg/day
same,carcinogen call,"rat, strain Wistar, males, in feed, site: liver, lesion: carcinoma, dosed 54 weeks, study length 69 weeks",negative (inactive)
same,TD50,"rat, strain Wistar, males, in feed, site: liver, lesion: hemangioendothelioma, dosed 96 weeks, study length 96 weeks",1.95 mg/kg/day
same,TD50,"rat, strain Wistar, males, in feed, site: liver, lesion: hepatocellular carcinoma, dosed 96 weeks, study length 96 weeks",5.52 mg/kg/day
same,TD50,"rat, strain Wistar, males, in feed, site: liver, lesion: nodular hyperplasia, dosed 96 weeks, study length 96 weeks",0.782 mg/kg/day
same,TD50,"rat, strain Wistar, males, in feed, site: testis, lesion: Leydig-cell tumor, dosed 54 weeks, study length 69 weeks",0.136 mg/kg/day
CCOc1ccccc1C(N)=O,TD50,"mouse, strain B6C3F1, females, in feed, site: liver, lesion: several types, types named in the paper, dosed 96 weeks, study length 100 weeks",3310 mg/kg/day
same,TD50,"mouse, strain B6C3F1, males, in feed, site: liver, lesion: several types, types named in the paper, dosed 96 weeks, study length 100 weeks",513 mg/kg/day
